The results in this text go back to patent US20240360153A1 (Regeneron Pharmaceuticals, Inc., priority 2023, published 2024).

One may read the inhibition as the percentage by which the read-out fell short of the control. The term IC50 denotes the concentration that inhibits the measured activity by half. A higher IC50 goes with a need for much substance.

Structures are written as SMILES.

The test system of assay [1] is S6K1 (Thr389) phosphorylation (mTORC1 activity) in FKBP12 knock-out 293T cells. The assay can be described thus: Inhibition of S6K1 (Thr389) phosphorylation in FKBP12 knock-out 293T cells (ELISA). Type of assay: cell-based, human. As to conditions: for inhibition at 10 µM: Homo sapiens, HEK-293T, 10 μM (highest tested concentration); for selectivity for FKBP12 compared with RAD001 (in words): wild-type versus FKBP12 knock-out cells. The source says: Example Generation of FKBP 12 knock-out cells. A CRISPR/Cas9 system was used to deliver ribonucleoprotein complexes containing guide RNA sequences that target FKBP12 (ac[…], location 1369062; ccactactcac[…], location 1369181) in HEK293T cells using Lipofectamine CRISPRMAX transfection reagent (Invitrogen CMAX00008). Cell clones were screened by immunoblotting with anti-FKBP-specific antibody (Novus, NB300-508). Single cells that were deficient for FKBP12 protein were selected and cloned.
(§1) Treatment of wild-type (WT) and FKBP12 knock-out 293T cells with RAD001 (everolimus) and test compounds. WT and FKBP12 knock-out 293T cells were cultured in Dulbecco's modified Eagle's medium (Gibco #11971-025) supplemented with 10% fetal bovine serum (Gibco #26140-079). Cells were plated at a density of 15,000 cells per well in poly-D-Lysine coated 96-well plates (Corning, #354461) and were incubated at 37° C., 5% CO2 for 24 hours until they reached ˜80% confluence. Cells were treated with RAD001 or test compounds reconstituted in dimethyl sulfoxide (DMSO) using a 8-11-point dose range, from 0.001 pM to 10 μM. All treatments were performed in duplicates for 2 hours at 37° C. Cell culture media supplemented with blank dimethyl sulfoxide (DMSO) was used as a negative control for all compounds. Phosphorylated amounts of S6K1 (Thr389) were measured using an ELISA kit (Invitrogen 85-86052-11), following the manufacture's protocol.
(§2) S6K1 is an immediate downstream target of mTORC1 and therefore phosphorylation of S6K1 at Thr389 residue is used to measure mTORC1 activity (PMID: 16968213). Amounts of phosphorylated S6K1 (Thr389) were measured in WT and FKBP12 knock-out 293T cells treated with either RAD001 or Compound 44 (FIGS. 1A and 1B), and Compound 45 (FIGS. 1C and 1D).

Assay [2] has as its system S6K1 (Thr389) phosphorylation (mTORC1 activity) in wild-type (WT) 293T cells. The assay can be described thus: Inhibition of S6K1 (Thr389) phosphorylation in wild-type 293T cells (ELISA). The class given is cell-based, human. Particulars: for fold lower potency compared with RAD001 (by IC50) / extent of inhibition of S6K1 (Thr389) phosphorylation: wild-type cells; for extent of inhibition of S6K1 (Thr389) phosphorylation: with increasing concentrations; for IC50: Homo sapiens, HEK-293T, 2 h, wild-type 293T cells, 2 hours treatment. Here is the method:
as §1, §2
A general note: ELISA stands for enzyme-linked immunosorbent assay.

Turning to `CO[C@@H]1C[C@H](C[C@@H](C)[C@@H]2CC[C@H](C)/C=C(\C)[C@@H](O)[C@@H](OC)C(=O)[C@H](C)C[C@H](C)/C=C/C=C/C=C(\C)C(NS(=O)(=O)c3ccccc3)C[C@@H]3CC[C@@H](C)[C@@](O)(O3)C(=O)C(=O)N3CCCC[C@H]3C(=O)O2)CC[C@H]1O` (some centres unmarked) [Compound 16], in assay [1] (FKBP12 knock-out cells), the “inhibition of S6K1 (Thr389) phosphorylation in the absence of FKBP12 (in words)” value (“inhibition of S6K1 … (in words)” below) is on record as “comparable to that of RAD001” and the inhibition at 10 µM is approximately 70%. Further, in assay [2], the “fold lower potency compared with RAD001 (by IC50)” value (“fold lower potency” for short) is recorded as approximately 28 fold and the “extent of inhibition of S6K1 (Thr389) phosphorylation” value (“extent of inhibition of S6K1” for short) is recorded as “complete inhibition”.

For `COc1ccc(NC2C[C@@H]3CC[C@@H](C)[C@@](O)(O3)C(=O)C(=O)N3CCCCC3C(=O)O[C@H]([C@H](C)C[C@@H]3CC[C@@H](O)[C@H](OC)C3)CC[C@H](C)/C=C(\C)[C@@H](O)[C@@H](OC)C(=O)[C@H](C)C[C@H](C)/C=C/C=C/C=C/2C)cc1` (stereo partly drawn) [Compound 47, (3S,6S,7E,9R,10R,12R,14S,15E,17E,19E,23S,26R,27R,34aS)-9,27-dihydroxy-3-((R)-1-((1S,3R,4R)-4-hydroxy-3-methoxycyclohexyl)propan-2-yl)-10-methoxy-21-((4-methoxyphenyl)amino)-6,8,12,14,20,26-hexamethyl-5,6,9,10,12,13,14,21,22,23,24,25,26,27,32,33,34,34a-octadecahydro-3H-23,27-epoxypyrido[2,1-c][1]oxa[4]azacyclohentriacontine-1,11,28,29(4H,31H)-tetraone], the “inhibition of S6K1 … (in words)” value in assay [1] (FKBP12 knock-out cells) is listed as “did not inhibit S6K1 (Thr389)phosphorylation at any tested concentrations”. Also, the “selectivity for FKBP12 compared with RAD001 (in words)” value (shortened to “selectivity for FKBP12”) in assay [1] was “relatively more selective to FKBP12 compared with RAD001”. Also, in assay [2], the IC50 was 69 nM, the “fold lower potency” value is given as 219 fold and the “extent of inhibition of S6K1” value was “near complete inhibition”.

`CO[C@@H]1C[C@H](C[C@@H](C)[C@@H]2CC[C@H](C)/C=C(\C)[C@@H](O)[C@@H](OC)C(=O)[C@H](C)C[C@H](C)/C=C/C=C/C=C(\C)C(Nc3cnccn3)C[C@@H]3CC[C@@H](C)[C@@](O)(O3)C(=O)C(=O)N3CCCCC3C(=O)O2)CC[C@H]1O` (some centres unmarked) [Compound 52]: the “inhibition of S6K1 … (in words)” value in assay [1] (FKBP12 knock-out cells) is given as “did not inhibit S6K1 (Thr389)phosphorylation at any tested concentrations”. In assay [1], the “selectivity for FKBP12” value is reported as “selective to FKBP12”. Besides, in assay [2], the IC50 was 9.15 nM, the “fold lower potency” value was determined as 25 fold and the “extent of inhibition of S6K1” value is reported as “near complete inhibition”.

With `CO[C@@H]1C[C@H](C[C@@H](C)[C@@H]2CC[C@H](C)/C=C(\C)[C@@H](O)[C@@H](OC)C(=O)[C@H](C)C[C@H](C)/C=C/C=C/C=C(\C)C(Nc3cccc(C#N)c3)C[C@@H]3CC[C@@H](C)[C@@](O)(O3)C(=O)C(=O)N3CCCCC3C(=O)O2)CC[C@H]1O` (stereo partly drawn) [Compound 57, 3-(((3S,6S,7E,9R,10R,12R,14S,15E,17E,19E,23S,26R,27R,34aS)-9,27-dihydroxy-3-((R)-1-((1S,3R,4R)-4-hydroxy-3-methoxycyclohexyl)propan-2-yl)-10-methoxy-6,8,12,14,20,26-hexamethyl-1,11,28,29-tetraoxo-1,4,5,6,9,10,11,12,13,14,21,22,23,24,25,26,27,28,29,31,32,33,34,34a-tetracosahydro-3H-23,27-epoxypyrido[2,1-c][1]oxa[4]azacyclohentriacontin-21-yl)amino)benzonitrile], the “inhibition of S6K1 … (in words)” value in assay [1] (FKBP12 knock-out cells) is listed as “inhibited the mTORC1 signaling in a dose dependent manner”. In assay [1], the “selectivity for FKBP12” value is reported as “relatively not FKBP12 selective”. In assay [2], the IC50 was found to be 3.68 nM, the “fold lower potency” value came out at 44 fold and the “extent of inhibition of S6K1” value is “near complete inhibition”.

In turn, `CO[C@@H]1C[C@H](C[C@@H](C)[C@@H]2CC[C@H](C)/C=C(\C)[C@@H](O)[C@@H](OC)C(=O)[C@H](C)C[C@H](C)/C=C/C=C/C=C(\C)C(N(C)c3ccccc3)C[C@@H]3CC[C@@H](C)[C@@](O)(O3)C(=O)C(=O)N3CCCCC3C(=O)O2)CC[C@H]1O` (stereo partly drawn) [Compound 63, (3S,6S,7E,9R,10R,12R,14S,15E,17E,19E,23S,26R,27R,34aS)-9,27-dihydroxy-3-((R)-1-((1S,3R,4R)-4-hydroxy-3-methoxycyclohexyl)propan-2-yl)-10-methoxy-6,8,12,14,20,26-hexamethyl-21-(methyl(phenyl)amino)-5,6,9,10,12,13,14,21,22,23,24,25,26,27,32,33,34,34a-octadecahydro-3H-23,27-epoxypyrido[2,1-c][1]oxa[4]azacyclohentriacontine-1,11,28,29(4H,31H)-tetraone] displayed an inhibition at 10 µM in assay [1] (FKBP12 knock-out cells) of 17%. Further, the “selectivity for FKBP12” value in assay [1] is “more selective than RAD001”. For the same compound, in assay [2], the midpoint of inhibition, the IC50, lay at 2.43 nM; the “fold lower potency” value came to 10 fold; the “extent of inhibition of S6K1” value was “near complete inhibition”.

`COC1C(=O)[C@H](C)C[C@H](C)/C=C/C=C/C=C(\C)C(NS(=O)(=O)c2cccc(C)c2)C[C@@H]2CC[C@@H](C)[C@@](O)(O2)C(=O)C(=O)N2CCCC[C@H]2C(=O)OC([C@H](C)CC2CC[C@@H](O)C(OC)C2)CC[C@H](C)/C=C(\C)C1O` (stereo partly drawn) [Compound 72, N-((3S,6S,7E,9R,10R,12R,14S,15E, 17E,19E,23S,26R,27R,34aS)-9,27-dihydroxy-3-((R)-1-((1S,3R,4R)-4-hydroxy-3-methoxycyclohexyl)propan-2-yl)-10-methoxy-6,8,12,14,20,26-hexamethyl-1,11,28,29-tetraoxo-1,4,5,6,9,10,11,12,13,14,21,22,23,24,25,26,27,28,29,31,32,33,34,34a-tetracosahydro-3H-23,27-epoxypyrido[2,1-c][1]oxa[4]azacyclohentriacontin-21-yl)-3-methylbenzenesulfonamide]: in assay [1] (FKBP12 knock-out cells), the “inhibition of S6K1 … (in words)” value was “inhibited S6K1 (Thr389)phosphorylation in a dose dependent manner” and the inhibition at 10 µM worked out at 40%. In assay [2], the midpoint of inhibition, the IC50, lay at 0.914 nM; the “fold lower potency” value is recorded as 5.2 fold; the “extent of inhibition of S6K1” value is listed as “near complete inhibition”.

Take `COC1C(=O)[C@H](C)C[C@H](C)/C=C/C=C/C=C(\C)C(N(C)S(=O)(=O)c2ccccc2)C[C@@H]2CC[C@@H](C)[C@@](O)(O2)C(=O)C(=O)N2CCCC[C@H]2C(=O)OC([C@H](C)CC2CC[C@@H](O)C(OC)C2)CC[C@H](C)/C=C(\C)C1O` (stereo partly drawn) [Compound 73, N-((3S,6S,7E,9R,10R,12R,14S,15E, 17E,19E,23S,26R,27R,34aS)-9,27-dihydroxy-3-((R)-1-((1S,3R,4R)-4-hydroxy-3-methoxycyclohexyl)propan-2-yl)-10-methoxy-6,8,12,14,20,26-hexamethyl-1,11,28,29-tetraoxo-1,4,5,6,9,10,11,12,13,14,21,22,23,24,25,26,27,28,29,31,32,33,34,34a-tetracosahydro-3H-23,27-epoxypyrido[2,1-c][1]oxa[4]azacyclohentriacontin-21-yl)-N-methylbenzenesulfonamide]: in assay [1] (FKBP12 knock-out cells), the “concentration achieving 20% inhibition of S6K1 (Thr389) phosphorylation” value is 2.7 nM and the inhibition at 10 µM was approximately 60%. The “selectivity for FKBP12” value in assay [1] was “not FKBP12 selective”. Moreover, in assay [2], the midpoint of inhibition, the IC50, lay at 2.22 nM; the “fold lower potency” value was determined as 13 fold; the “extent of inhibition of S6K1” value was “near complete inhibition”.
